{
  "source": "ChEMBL document CHEMBL5465560",
  "about": "“Selectivity Literature for EUbOPEN Chemogenomic Library” (2024)",
  "key": {"[1]": {"target": "Myosin light chain kinase, smooth muscle (Homo sapiens, UniProt Q15746)", "sequence (Q15746 whole entry)": "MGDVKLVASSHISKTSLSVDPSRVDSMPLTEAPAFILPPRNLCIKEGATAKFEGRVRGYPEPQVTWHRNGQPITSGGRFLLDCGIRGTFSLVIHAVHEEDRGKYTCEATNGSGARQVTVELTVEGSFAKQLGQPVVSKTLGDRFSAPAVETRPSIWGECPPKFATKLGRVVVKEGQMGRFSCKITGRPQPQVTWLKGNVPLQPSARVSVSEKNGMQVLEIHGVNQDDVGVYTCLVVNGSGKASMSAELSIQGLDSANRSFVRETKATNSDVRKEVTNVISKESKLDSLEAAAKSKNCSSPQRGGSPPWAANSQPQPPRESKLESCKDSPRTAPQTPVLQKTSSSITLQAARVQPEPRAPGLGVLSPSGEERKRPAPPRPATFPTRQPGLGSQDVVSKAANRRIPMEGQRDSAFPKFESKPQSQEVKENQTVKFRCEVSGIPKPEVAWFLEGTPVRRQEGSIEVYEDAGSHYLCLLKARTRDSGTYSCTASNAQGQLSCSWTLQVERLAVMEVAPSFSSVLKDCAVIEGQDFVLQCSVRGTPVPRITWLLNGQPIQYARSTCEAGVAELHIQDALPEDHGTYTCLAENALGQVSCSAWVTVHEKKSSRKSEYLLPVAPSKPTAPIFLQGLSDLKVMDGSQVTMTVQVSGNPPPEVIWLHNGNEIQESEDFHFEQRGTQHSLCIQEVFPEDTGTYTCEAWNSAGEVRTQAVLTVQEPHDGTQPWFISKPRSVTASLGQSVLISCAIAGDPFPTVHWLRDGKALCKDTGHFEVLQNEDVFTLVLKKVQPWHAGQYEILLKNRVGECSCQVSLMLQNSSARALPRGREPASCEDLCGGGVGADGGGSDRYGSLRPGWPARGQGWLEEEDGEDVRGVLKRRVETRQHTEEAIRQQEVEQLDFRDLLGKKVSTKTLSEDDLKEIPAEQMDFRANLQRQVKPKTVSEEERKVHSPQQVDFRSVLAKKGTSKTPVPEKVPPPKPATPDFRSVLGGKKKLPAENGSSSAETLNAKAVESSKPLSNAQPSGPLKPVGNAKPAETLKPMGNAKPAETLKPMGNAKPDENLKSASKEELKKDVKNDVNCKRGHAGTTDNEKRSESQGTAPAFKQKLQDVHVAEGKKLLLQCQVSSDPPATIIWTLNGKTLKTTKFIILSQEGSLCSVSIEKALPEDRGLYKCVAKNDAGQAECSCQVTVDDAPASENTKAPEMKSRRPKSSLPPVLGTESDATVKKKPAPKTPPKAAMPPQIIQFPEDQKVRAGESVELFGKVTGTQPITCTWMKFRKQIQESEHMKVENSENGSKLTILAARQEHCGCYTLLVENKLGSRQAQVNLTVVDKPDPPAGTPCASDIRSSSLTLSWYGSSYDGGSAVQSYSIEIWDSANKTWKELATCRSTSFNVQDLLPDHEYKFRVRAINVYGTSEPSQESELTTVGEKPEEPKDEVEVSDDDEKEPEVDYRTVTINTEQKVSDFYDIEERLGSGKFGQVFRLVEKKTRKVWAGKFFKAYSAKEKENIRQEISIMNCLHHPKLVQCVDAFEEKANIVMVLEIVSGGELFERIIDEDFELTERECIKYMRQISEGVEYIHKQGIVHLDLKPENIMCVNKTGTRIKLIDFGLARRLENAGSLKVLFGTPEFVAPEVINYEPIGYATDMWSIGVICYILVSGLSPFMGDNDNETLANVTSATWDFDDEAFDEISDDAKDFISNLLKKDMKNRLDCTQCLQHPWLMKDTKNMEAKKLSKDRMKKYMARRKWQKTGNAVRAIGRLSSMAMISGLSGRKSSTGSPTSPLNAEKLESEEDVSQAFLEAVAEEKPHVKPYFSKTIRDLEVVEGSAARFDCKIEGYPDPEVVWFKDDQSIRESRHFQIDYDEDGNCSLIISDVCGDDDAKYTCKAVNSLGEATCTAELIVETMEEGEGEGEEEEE", "experiment": "Selectivity interaction (KinomeScan (DiscoverX)) EUB0000595a MYLK", "conditions": "at 10 µM"}, "[2]": {"target": "Receptor tyrosine-protein kinase erbB-2 (Homo sapiens, UniProt P04626)", "experiment": "Selectivity interaction (KinomeScan (DiscoverX)) EUB0001079a ERBB2", "conditions": "at 1 µM"}, "[3]": {"target": "Ephrin type-A receptor 2 (Homo sapiens) (UniProt P29317)", "sequence (P29317 whole entry)": "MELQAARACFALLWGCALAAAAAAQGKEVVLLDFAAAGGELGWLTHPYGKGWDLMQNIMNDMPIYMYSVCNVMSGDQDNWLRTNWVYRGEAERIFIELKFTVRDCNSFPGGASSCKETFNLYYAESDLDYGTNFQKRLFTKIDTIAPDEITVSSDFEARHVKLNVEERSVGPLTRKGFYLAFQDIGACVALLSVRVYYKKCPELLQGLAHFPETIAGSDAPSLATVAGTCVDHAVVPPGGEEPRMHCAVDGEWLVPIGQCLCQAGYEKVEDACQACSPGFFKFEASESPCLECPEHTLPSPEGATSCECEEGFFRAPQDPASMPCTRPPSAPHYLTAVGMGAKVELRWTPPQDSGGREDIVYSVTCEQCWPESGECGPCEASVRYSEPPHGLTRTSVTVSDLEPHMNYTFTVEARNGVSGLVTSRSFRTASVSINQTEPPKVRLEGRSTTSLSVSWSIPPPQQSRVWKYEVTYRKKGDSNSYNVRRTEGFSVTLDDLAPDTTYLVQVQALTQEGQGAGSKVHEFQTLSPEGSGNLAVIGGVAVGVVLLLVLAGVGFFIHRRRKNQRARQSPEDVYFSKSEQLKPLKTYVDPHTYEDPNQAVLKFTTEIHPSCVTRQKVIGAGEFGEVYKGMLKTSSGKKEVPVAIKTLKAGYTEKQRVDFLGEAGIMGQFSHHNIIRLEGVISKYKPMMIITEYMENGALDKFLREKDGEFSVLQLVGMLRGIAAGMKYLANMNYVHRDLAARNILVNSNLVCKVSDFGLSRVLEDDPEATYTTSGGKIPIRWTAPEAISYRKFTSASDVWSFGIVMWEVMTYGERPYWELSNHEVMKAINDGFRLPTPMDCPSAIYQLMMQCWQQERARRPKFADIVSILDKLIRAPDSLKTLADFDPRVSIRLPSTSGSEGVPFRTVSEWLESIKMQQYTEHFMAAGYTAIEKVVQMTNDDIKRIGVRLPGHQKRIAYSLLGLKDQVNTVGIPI", "conditions": "at 10 µM"}, "[4]": {"target": "T1, Casein kinase I isoform alpha-like (Homo sapiens) (UniProt Q8N752)", "T1 sequence (whole entry)": "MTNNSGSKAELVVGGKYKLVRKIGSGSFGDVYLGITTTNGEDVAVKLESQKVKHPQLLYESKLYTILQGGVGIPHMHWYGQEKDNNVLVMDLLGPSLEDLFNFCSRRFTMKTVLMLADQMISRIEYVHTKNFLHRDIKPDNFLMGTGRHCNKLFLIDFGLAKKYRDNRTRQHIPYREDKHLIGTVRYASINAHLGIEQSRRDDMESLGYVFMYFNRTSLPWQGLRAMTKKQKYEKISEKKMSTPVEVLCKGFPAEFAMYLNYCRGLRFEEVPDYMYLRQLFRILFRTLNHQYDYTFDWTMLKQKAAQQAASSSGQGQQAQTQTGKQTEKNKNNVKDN", "experiment": "Selectivity interaction (KinomeScan (DiscoverX)) EUB0001619a CSNK1A1L", "conditions": "at 1 µM"}, "[5]": {"target": "Activated CDC42 kinase 1 (Homo sapiens, UniProt Q07912)", "sequence (Q07912 whole entry, looked up)": "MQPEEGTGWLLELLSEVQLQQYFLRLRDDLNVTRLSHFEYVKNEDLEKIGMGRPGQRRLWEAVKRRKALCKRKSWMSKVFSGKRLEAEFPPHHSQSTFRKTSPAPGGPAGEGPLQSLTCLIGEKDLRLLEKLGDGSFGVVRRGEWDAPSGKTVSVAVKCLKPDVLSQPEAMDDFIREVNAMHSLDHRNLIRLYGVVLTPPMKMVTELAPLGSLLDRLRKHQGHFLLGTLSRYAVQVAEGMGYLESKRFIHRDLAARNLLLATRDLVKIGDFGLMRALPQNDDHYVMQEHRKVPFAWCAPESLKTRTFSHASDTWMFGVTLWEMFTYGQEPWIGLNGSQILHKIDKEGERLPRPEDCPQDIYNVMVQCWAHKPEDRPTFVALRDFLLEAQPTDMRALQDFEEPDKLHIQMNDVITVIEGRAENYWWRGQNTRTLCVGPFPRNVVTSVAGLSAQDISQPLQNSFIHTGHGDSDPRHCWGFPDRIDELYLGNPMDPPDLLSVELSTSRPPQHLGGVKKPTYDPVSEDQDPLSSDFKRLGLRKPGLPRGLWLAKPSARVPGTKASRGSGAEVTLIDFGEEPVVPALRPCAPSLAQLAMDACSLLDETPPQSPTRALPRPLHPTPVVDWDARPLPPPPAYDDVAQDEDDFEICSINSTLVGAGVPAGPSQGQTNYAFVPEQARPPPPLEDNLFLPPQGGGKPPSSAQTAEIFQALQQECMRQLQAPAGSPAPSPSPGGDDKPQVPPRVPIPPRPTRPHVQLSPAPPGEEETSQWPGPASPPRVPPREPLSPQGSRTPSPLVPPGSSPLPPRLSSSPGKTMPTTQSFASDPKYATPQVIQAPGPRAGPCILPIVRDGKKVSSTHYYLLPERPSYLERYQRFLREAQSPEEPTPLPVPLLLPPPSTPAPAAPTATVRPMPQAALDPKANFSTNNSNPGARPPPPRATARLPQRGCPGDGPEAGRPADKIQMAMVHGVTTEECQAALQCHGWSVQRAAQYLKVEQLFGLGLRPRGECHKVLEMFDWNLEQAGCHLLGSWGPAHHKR", "experiment": "Selectivity interaction (KinaseProfiler screening (Millipore)) EUB0000601a TNK2", "conditions": "at 3 µM"}, "[6]": {"target": "T2, Dual specificity protein kinase TTK (Homo sapiens) (UniProt P33981)", "T2 sequence (whole entry)": "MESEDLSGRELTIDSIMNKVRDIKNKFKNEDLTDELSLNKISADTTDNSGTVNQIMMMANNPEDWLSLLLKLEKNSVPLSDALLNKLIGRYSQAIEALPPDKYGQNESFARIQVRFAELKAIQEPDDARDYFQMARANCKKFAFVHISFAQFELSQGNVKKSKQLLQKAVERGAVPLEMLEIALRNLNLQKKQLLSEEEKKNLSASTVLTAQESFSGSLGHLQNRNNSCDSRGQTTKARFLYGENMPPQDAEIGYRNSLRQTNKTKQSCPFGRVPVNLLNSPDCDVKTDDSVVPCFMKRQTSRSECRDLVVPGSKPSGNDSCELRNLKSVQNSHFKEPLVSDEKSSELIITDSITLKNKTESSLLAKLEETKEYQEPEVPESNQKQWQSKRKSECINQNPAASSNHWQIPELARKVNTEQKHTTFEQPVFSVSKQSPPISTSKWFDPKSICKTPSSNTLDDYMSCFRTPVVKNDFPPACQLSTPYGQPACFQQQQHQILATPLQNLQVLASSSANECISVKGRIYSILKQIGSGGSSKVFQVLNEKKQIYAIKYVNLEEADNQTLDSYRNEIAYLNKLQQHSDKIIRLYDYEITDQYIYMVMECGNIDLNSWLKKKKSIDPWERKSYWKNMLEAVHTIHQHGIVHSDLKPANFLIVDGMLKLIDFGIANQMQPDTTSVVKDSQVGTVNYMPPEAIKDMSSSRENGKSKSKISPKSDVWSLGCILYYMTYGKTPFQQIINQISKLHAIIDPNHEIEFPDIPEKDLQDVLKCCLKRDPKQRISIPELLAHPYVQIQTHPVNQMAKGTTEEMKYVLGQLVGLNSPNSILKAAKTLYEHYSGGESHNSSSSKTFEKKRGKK", "experiment": "Selectivity interaction (KinomeScan (DiscoverX)) EUB0000607a TTK", "conditions": "at 10 µM"}, "[7]": {"target": "Serine/threonine-protein kinase 26 (Homo sapiens, UniProt Q9P289)", "sequence (Q9P289 2-416 limits assumed)": "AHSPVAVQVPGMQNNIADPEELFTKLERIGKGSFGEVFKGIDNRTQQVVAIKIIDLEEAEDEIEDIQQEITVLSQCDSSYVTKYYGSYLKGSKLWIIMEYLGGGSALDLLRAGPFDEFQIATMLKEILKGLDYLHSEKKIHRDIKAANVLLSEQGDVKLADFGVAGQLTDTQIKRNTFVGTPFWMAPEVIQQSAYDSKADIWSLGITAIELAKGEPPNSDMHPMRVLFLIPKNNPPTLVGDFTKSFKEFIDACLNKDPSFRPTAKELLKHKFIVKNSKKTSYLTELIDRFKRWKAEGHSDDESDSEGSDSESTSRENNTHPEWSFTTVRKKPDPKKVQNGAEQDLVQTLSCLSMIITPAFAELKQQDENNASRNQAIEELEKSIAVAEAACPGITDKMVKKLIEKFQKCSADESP", "experiment": "Selectivity interaction (Kinase panel (DSF assay)) EUB0001558a STK26"}, "[8]": {"target": "T3, Cytoplasmic tyrosine-protein kinase BMX (Homo sapiens) (UniProt P51813)", "T3 sequence (whole entry)": "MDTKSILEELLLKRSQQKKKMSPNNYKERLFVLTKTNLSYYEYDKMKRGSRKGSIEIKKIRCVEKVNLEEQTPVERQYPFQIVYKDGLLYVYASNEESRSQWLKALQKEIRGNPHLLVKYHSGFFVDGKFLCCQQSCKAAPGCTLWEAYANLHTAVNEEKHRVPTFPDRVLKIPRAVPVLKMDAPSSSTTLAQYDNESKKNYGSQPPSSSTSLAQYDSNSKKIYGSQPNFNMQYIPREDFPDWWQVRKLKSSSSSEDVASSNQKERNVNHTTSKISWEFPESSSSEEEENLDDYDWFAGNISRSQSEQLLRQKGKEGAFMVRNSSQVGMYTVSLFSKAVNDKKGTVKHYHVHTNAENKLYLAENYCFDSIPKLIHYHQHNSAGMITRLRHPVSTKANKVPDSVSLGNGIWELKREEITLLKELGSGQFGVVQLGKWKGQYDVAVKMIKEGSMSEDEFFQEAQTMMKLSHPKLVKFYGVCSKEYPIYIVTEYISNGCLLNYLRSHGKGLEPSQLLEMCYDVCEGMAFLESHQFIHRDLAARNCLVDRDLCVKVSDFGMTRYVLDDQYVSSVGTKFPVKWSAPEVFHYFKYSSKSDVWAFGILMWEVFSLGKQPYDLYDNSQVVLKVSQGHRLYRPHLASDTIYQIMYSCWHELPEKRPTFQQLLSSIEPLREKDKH", "experiment": "Selectivity interaction (KinomeScan (DiscoverX)) EUB0000655a BMX", "conditions": "at 10 µM"}},
  "data": [
    {"smiles": "COCC(=O)NC/C=C/c1ccc2ncnc(Nc3ccc(Oc4ccc(C)nc4)c(C)c3)c2c1", "note": "[CP-724714]", "values": [
      {"measurement": "% of control", "setting": "[1]", "value": 100, "unit": "%"}
    ]},
    {"smiles": "Nc1cnc(N2CCc3cc(S(=O)(=O)Nc4c(F)cc(Cl)cc4F)cc(N4CCCC4=O)c32)nc1", "note": "[TP-020n]", "values": [
      {"measurement": "% of control", "setting": "[2]", "value": 100, "unit": "%"}
    ]},
    {"smiles": "Cc1cc([C@@H](C)Nc2ccccc2C(=O)O)c2nc(N3CCOCC3)cc(=O)n2c1", "note": "[AZD-6482]", "values": [
      {"measurement": "% of control", "setting": "[3]", "value": 70, "unit": "%"}
    ]},
    {"smiles": "N#Cc1cccc(-c2c[nH]c3ncnc(N4CCOCC4)c23)c1", "values": [
      {"measurement": "% of control", "setting": "[4]", "value": 96, "unit": "%"}
    ]},
    {"smiles": "CCc1cc(Nc2nccc(-c3c(-c4ccc(OC)c(C(=O)Nc5c(F)cccc5F)c4)nc4ccccn34)n2)c(OC)cc1N1CCC(N2CCN(S(C)(=O)=O)CC2)CC1", "values": [
      {"measurement": "% of inhibition", "setting": "[5]", "value": 34, "unit": "%"}
    ]},
    {"smiles": "CNC(=O)Nc1ccc(-c2nc(N3CC4CCC(C3)O4)c3cnn(C4CCC5(CC4)OCCO5)c3n2)cc1", "values": [
      {"measurement": "% of control", "setting": "[6]", "value": 100, "unit": "%"}
    ]},
    {"smiles": "CC(C)(O)[C@H](F)CN1Cc2cc(NC(=O)c3cnn4cccnc34)c(N3CCOCC3)cc2C1=O", "values": [
      {"measurement": "dTM", "setting": "[7]", "value": 0.4, "unit": "K"}
    ]},
    {"smiles": "CN(C)CCOc1ccc(-c2nc(-c3ccncc3)c(-c3ccc4c(c3)CC/C4=N\\O)[nH]2)cc1", "values": [
      {"measurement": "% of control", "setting": "[8]", "value": 81, "unit": "%"}
    ]}
  ]
}
